Source: US7674906B2, “Tetracyclic immunomodulatory compounds” (Active Biotech AB, priority 2002, dated 2010)

target: T1, CD80-CD 28 interaction (Homo sapiens, UniProt P33681); test: cell free Homogenous Time Resolved Fluorescence (HTRF) assay, inhibition of the CD80-CD28 interaction; type: binding; settings: CD28-mouse Fc fusion protein and CD80 mouse Fab fragment (C215) fusion protein, 4 hours at room temperature, concentration series 100 μM-1.7 nM
T1 sequence (P33681 35-242 limits assumed): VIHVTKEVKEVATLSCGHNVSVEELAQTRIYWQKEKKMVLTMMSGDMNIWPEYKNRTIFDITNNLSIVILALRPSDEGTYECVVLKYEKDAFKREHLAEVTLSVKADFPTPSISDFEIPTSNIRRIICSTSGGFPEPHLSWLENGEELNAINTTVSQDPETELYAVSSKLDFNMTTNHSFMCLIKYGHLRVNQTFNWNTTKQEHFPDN
Description: The examples described above were tested in a cell free Homogenous Time Resolved Fluorescence (HTRF) assay to determine their activity as inhibitors of the CD80-CD 28 interaction.
In the assay, europium and allophycocyanin (APC) are associated with CD28 and CD80 indirectly (through anti-body linkers) to form a complex, which brings the europium and APC into close proximity to generate a signal. The complex comprises the following six proteins: fluorescent label 1, linker antibody 1, CD28 fusion protein, CD80 fusion protein, linker antibody 2, and fluorescent label 2. The table below describes these reagents in greater detail.
On formation of the complex, europium and APC are brought into proximity and a signal is generated.
Non-specific interaction was measured by substituting a mouse Fab fragment (C215) for the CD80 mouse Fab fragment fusion protein (1.9 μg/ml). The assay was carried out in black 384 well plates in a final volume of 30 μl. Assay buffer: 50 mM Tris-HCl, 150 mM NaCl pH7.8, containing 0.1% BSA (w/v) added just prior to use.
Compounds were added to the above reagents in a concentration series ranging between 100 μM-1.7 nM. The reaction was incubated for 4 hours at room temperature. Dual measurements were made using a Wallac Victor 1420 Multilabel Counter. First measurement: excitation 340 nm, emission 665 nm, delay 50 μs, window time 200 μs. second measurement: excitation 340 nm, emission 615 nm, delay 50 μs, window time 200 μs. Counts were automatically corrected for fluorescence crossover, quenching and background.

Going from `O=C(O)c1ccc(-n2nc3c4ccccc4[nH]c(-c4cccc([N+](=O)[O-])c4)c-3c2=O)cc1` [Example 5, 4-[4-(3-Nitro-phenyl)-3-oxo-3,5-dihydro-pyrazolo[4,3-c]-quinolin-2-yl]-benzoic acid] to `COc1ccc(-c2[nH]c3ccccc3c3nn(-c4ccc(C(=O)O)cc4)c(=O)c2-3)cc1` [Example 7, 4-[4-(4-Methoxyphenyl)-3-oxo-3,5-dihydropyrazolo[4,3-c]-quinolin-2-yl]benzoic acid], the IC50 falls from 8.6 µM to 3.4 µM (2.5-fold). The second is the more potent here.

With `COc1ccc(-c2[nH]c3ccccc3c3nn(-c4cccc(C(=O)O)c4)c(=O)c2-3)cc1` [Example 9] the IC50 was 4.6 µM.
